The text below walks through data of publication PMC5971063 (ACS infectious diseases, 2017).

Values after ≈ are worked out from the molar mass of the structure shown.

The test system of one data set is rabbit erythrocytes. The experiment in a line: Hemolysis assay. The following applies: 100 µM. It counts as cell-based.
Data set [1] concerns S. epidermidis ATCC 12384. Nature of the data set: MIC by double-dilution method.
Data set [2] relates to human cytosolic A-site (RNA, rRNA) GGCGUCGCUCCUUCGGGAAAAGUCGCC
The experiment in a line: fluorescent displacement assay. The following applies: 50 mM Na+; F–NEO displaced (0.1 µM 1:1 complex), 10 mM HEPES, 0.4 mM EDTA, pH 7.

The test system of data set [3] is S. epidermidis ATCC 12384. Nature of the data set: Single-point antibacterial screen.
Another data set relates to K. pneumoniae NR-151410. Nature of the data set: Single-point antibacterial screen.
Data set [4] relates to L. monocytogenes ATCC 19115. The experiment in a line: MIC by double-dilution method.
In data set [5] the test system is S. marcescens ATCC 13880. The experiment in a line: Single-point antibacterial screen.
Data set [6] has as its system mitochondrial A-site (RNA, rRNA) GGCGUCACCCCUUCGGGACAAGUCGCC
The experiment in a line: fluorescent displacement assay. The following applies: 50 mM Na+; F–NEO displaced (0.1 µM 1:1 complex), 10 mM HEPES, 0.4 mM EDTA, pH 7.

The subject of data set [7] is S. flexneri 2457 NR-517. The experiment in a line: Single-point antibacterial screen. It counts as cell-based, Shigella flexneri.
Data set [8] concerns rabbit reticulocyte lysate (eukaryotic translation). Nature of the data set: Cell-free in vitro translation assay, eukaryotic system. Type of data set: biochemical. The following applies: 4.2 µM to 5 nM.
In another data set the test system is P. aeruginosa ATCC 27853. Nature of the data set: Single-point antibacterial screen.
Data set [9] concerns E. coli ATCC 25922. The experiment in a line: Single-point antibacterial screen.
For data set [10], the system named is E. cloacae ATCC 13047. The experiment in a line: Single-point antibacterial screen.
Data set [11] relates to MRSA A960649 NR-45914. The experiment in a line: MIC by double-dilution method.
A further data set addresses mitochondrial A-site. The following applies: F–NEO displacement.
The subject of a further data set is A. baumannii ATCC 19606. Nature of the data set: Single-point antibacterial screen.
Data set [12] has as its system C. freundii 4747 CFAA. Nature of the data set: MIC by double-dilution method.
Data set [13] has as its system P. mirabilis HM-752. Nature of the data set: MIC by double-dilution method.
Data set [14] deals with S. flexneri 2457 NR-517. The experiment in a line: MIC by double-dilution method. Type of data set: cell-based, Shigella flexneri.
Data set [15] has as its system MRSA ATCC 33591. Nature of the data set: MIC by double-dilution method. The following applies: MRSA 33591.
For data set [16], the system named is P. mirabilis HM-752. The experiment in a line: Single-point antibacterial screen.
Data set [17] deals with L. monocytogenes ATCC 19115. Nature of the data set: Single-point antibacterial screen.
Data set [18] has as its system C. freundii 4747 CFAA. The experiment in a line: Single-point antibacterial screen.
Data set [19] deals with E. coli ATCC 25922. Nature of the data set: MIC by double-dilution method.
The target in another data set is human cytosolic A-site. The following applies: F–NEO displacement.
Data set [20] relates to E. cloacae ATCC 13047. The experiment in a line: MIC by double-dilution method.
Data set [21] relates to E. coli A-site (RNA, rRNA) GGCGUCACACCUUCGGGUGAAGUCGCC
The experiment in a line: fluorescent displacement assay. The following applies: 50 mM Na+; F–NEO displaced (0.1 µM 1:1 complex), 10 mM HEPES, 0.4 mM EDTA, pH 7.

In another data set the test system is E. faecalis ATCC 29212. The experiment in a line: Single-point antibacterial screen.
For data set [22], the system named is S. marcescens ATCC 13880. The experiment in a line: MIC by double-dilution method.
The subject of data set [23] is MRSA ATCC 33591. The experiment in a line: Single-point antibacterial screen.
Another data set deals with E. coli A-site. The following applies: concentration at which F–NEO emission is 50% of maximum.
Data set [24] has as its system MRSA A960649 NR-45914. Nature of the data set: Single-point antibacterial screen.
In data set [25] the test system is E. coli S30 Extract System (prokaryotic translation). The experiment in a line: Cell-free in vitro translation assay, prokaryotic system. It counts as biochemical. The following applies: 1.25 µM–2.4 nM.
The nature of another data set: Hemolysis assay. It counts as cell-based, rabbit. The following applies: rabbit, rabbit erythrocytes (2% w/w).

Take Triton X-100: the “% hemolysis” value with rabbit erythrocytes is listed as 100.0%.
On to `NC[C@@H]1O[C@H](O[C@H]2[C@@H](O)[C@H](O[C@@H]3[C@@H](O)[C@H](N)C[C@H](N)[C@H]3O[C@H]3O[C@H](CN)[C@@H](O)[C@H](O)[C@H]3N)O[C@@H]2CO)[C@H](N)[C@@H](O)[C@@H]1O` [NEO, neomycin], for which the MIC in data set [1] is on record as 1.6 µM (≈ 0.983 µg/mL); in data set [4], 1.6 µM (≈ 0.983 µg/mL); against MRSA A960649 NR-45914 [11], 400 µM (≈ 246 µg/mL); with C. freundii 4747 CFAA [12], 0.78 µM (≈ 0.479 µg/mL); against P. mirabilis HM-752 [13], 6.3 µM (≈ 3.87 µg/mL); against S. flexneri 2457 NR-517 [14], 6.3 µM (≈ 3.87 µg/mL). The MIC in the data set on MRSA ATCC 33591 [15] was determined as 400 µM (≈ 246 µg/mL); in the data set with E. coli ATCC 25922 [19] it was 1.56 µM (≈ 0.959 µg/mL); with E. cloacae ATCC 13047 [20], 3.25 µM (≈ 2 µg/mL); in the data set on S. marcescens ATCC 13880 [22], 3.2 µM (≈ 1.97 µg/mL). Moreover, the IC50 in data set [2] came to 76.5 ± 13.2 nM; in data set [6], 87.1 ± 8.3 nM; on mitochondrial A-site it was 87.1 ± 8.3 nM; at human cytosolic A-site, 76.5 ± 13.2 nM; in [21], 87.3 ± 5.9 nM; in the data set with E. coli A-site, 87.3 ± 5.9 nM. Also, the “Inhibition of bacterial growth” value is 95% in data set [3] (S. epidermidis, 6.3 µM); 0% with K. pneumoniae NR-151410 (K. pneumoniae, 6.3 µM); 100% in the data set with S. marcescens ATCC 13880 [5] (S. marcescens, 6.3 µM); 100% with S. flexneri 2457 NR-517 [7] (S. flexneri, 6.3 µM); 11% with P. aeruginosa ATCC 27853 (P. aeruginosa, 6.3 µM); 100% with E. coli ATCC 25922 [9] (E. coli, 6.3 µM). Further, the “Inhibition of bacterial growth” value amounted to 100% in the data set on E. cloacae ATCC 13047 [10] (E. cloacae, 6.3 µM); 91% in the data set with A. baumannii ATCC 19606 (A. baumannii, 6.3 µM); 96% in the data set with P. mirabilis HM-752 [16] (P. mirabilis, 6.3 µM); 100% in data set [17] (L. monocytogenes, 6.3 µM, 48 h incubation); 97% in the data set on C. freundii 4747 CFAA [18] (C. freundii, 6.3 µM); 39% in the data set on E. faecalis ATCC 29212 (E. faecalis, 6.3 µM). Moreover, the “Inhibition of bacterial growth” value with MRSA ATCC 33591 [23] (MRSA 33591, 6.3 µM) is recorded as 0%; in the data set on MRSA A960649 NR-45914 [24] (MRSA A960649, 6.3 µM), 0%. In addition, in data set [8], the “Inhibition of eukaryotic translation” value is listed as “inhibition of translation is not observed”. For the same compound, the “% hemolysis” value in the data set on rabbit erythrocytes is on record as 7.0 ± 0.4%.
In the case of `NCc1ccc2c(c1)C(=O)c1ccccc1C2=O` [AMA], the inhibition at 6.3 µM was determined as 0% in data set [3] (Staphylococcus epidermidis, ATCC12384, read-out: Inhibition of bacterial growth); 0% in the data set with K. pneumoniae NR-151410 (Klebsiella pneumoniae, NR151410, read-out: Inhibition of bacterial growth); 0% in the data set with S. marcescens ATCC 13880 [5] (Serratia marcescens, ATCC13880, read-out: Inhibition of bacterial growth); 9% with S. flexneri 2457 NR-517 [7] (Shigella flexneri, 2457NR517, read-out: Inhibition of bacterial growth); 5% in the data set on P. aeruginosa ATCC 27853 (Pseudomonas aeruginosa, ATCC27853, read-out: Inhibition of bacterial growth); 2% in the data set on E. coli ATCC 25922 [9] (Escherichia coli, ATCC25922, read-out: Inhibition of bacterial growth). For the same compound, the inhibition at 6.3 µM was found to be 0% with E. cloacae ATCC 13047 [10] (Enterobacter cloacae, ATCC13047, read-out: Inhibition of bacterial growth); 0% with A. baumannii ATCC 19606 (Acinetobacter baumannii, ATCC19606, read-out: Inhibition of bacterial growth); 19% with P. mirabilis HM-752 [16] (Proteus mirabilis, HM752, read-out: Inhibition of bacterial growth); 37% in [17] (Listeria monocytogenes, ATCC19115, 48 h, read-out: Inhibition of bacterial growth); 4% in the data set on C. freundii 4747 CFAA [18] (Citrobacter freundii, 4747CFAA, read-out: Inhibition of bacterial growth); 27% with E. faecalis ATCC 29212 (Enterococcus faecalis, ATCC29212, read-out: Inhibition of bacterial growth). Moreover, the inhibition at 6.3 µM turned out to be 0% with MRSA ATCC 33591 [23] (Staphylococcus aureus, ATCC33591|MRSA, read-out: Inhibition of bacterial growth) and 0% with MRSA A960649 NR-45914 [24] (Staphylococcus aureus, MRSA, read-out: Inhibition of bacterial growth). Also, the “Inhibition of prokaryotic translation (in words)” value in data set [25] is “did not inhibit in vitro translation”. In addition, the hemolysis at 1 h, 100 µM in “Hemolysis assay” came to 10 ± 4.6%.
